Structures are written as SMILES. Where only a bound is given, the exact number is not on record here.

Consider 84 compounds from a melting point compilation (Tetko et al.; mined from patent text by program, amines drawn as free bases though some values may be those of a salt).

Broadly, the melting point is the temperature, or range, at which the solid turns liquid. With `Cc1nccn1-c1cccc(C2=Nc3ccc(-c4ccc(F)cc4)cc3NC(=O)C2)c1`, the melting point worked out at 227 °C.
The same measure for `CC[C@@H](c1ccccc1)N(Cc1ccc(C(=O)O)cc1)S(=O)(=O)c1ccc(Cl)cc1`: 154 to 156 °C; for `O=c1ccc(-c2ccc(-n3ccnc3)nc2)n[nH]1`: 261 to 263 °C; for `CCOC(=O)C1=C(CCl)NC(C)=C(C(=O)OC)C1c1cccc(C(F)(F)F)c1` (centres undefined): 115 to 116 °C.
Compound `COC(=O)c1ccccc1S(=O)(=O)NC(=O)Nc1nc(N(C)C)c2nc(C)c(C)nc2n1` registered a melting point of 196 °C.
The same measure for `Cc1cc(-c2ccc(C(F)(F)F)cc2)nc2ccnn12`: 89 to 90 °C; for `O=C(CCC1CCCCC1)NC1N=C(c2ccccc2)c2ccccc2N2CCN=C12` (centres undefined): 202 to 208 °C.
The same measure for `CC1CCN(C(=O)Oc2ccccc2-c2ccccc2)CC1`: 85 to 86 °C.
Then `COc1cc2c(cc1OC)CN(CCCCc1ccc(NC(=O)c3cccc4c(=O)cc(-c5ccccc5)oc34)cc1)CC2`, with 117 to 120 °C; and `CC(=O)Nc1ccc(S(=O)(=O)Nc2cscn2)cc1`, with 231 to 232 °C.
The compound `CCN(CC)C(=O)C(=O)Nc1cc(C)c(S(=O)(=O)C[N+](=O)[O-])c(C)c1` came in with a melting point of 128 to 129 °C.
Then `COc1ccc(-c2cc(COc3cccc4cc(NS(=O)(=O)C(F)(F)F)ccc34)ccc2F)cc1`, with 132 to 133 °C; and `COc1ccc(C(=O)c2ccc([N+](=O)[O-])cc2)cc1OC`, with 160 to 162 °C.
The compound `COc1cc2c(cc1OC)C(=O)C(=NO)C2` came in with a melting point of 240 °C.
The same measure for `CC1(C)CC(=O)C2=C(C1)NC1=C(C(=O)CC(C)(C)C1)C2c1cc(Cl)cc(Cl)c1`: 288 to 290 °C; for `Nc1ccc(Cl)c(N=C2NCCN2)c1`: 154 to 155 °C.
The compound `CC(Cl)(Cl)C(Cl)(Cl)c1cccc([N+](=O)[O-])c1` came in with a melting point of 75.5 to 77 °C.
The same measure for `CCN1C(=O)N(c2cc(Cl)cc(Cl)c2)C(=O)[C@]12CN(S(=O)(=O)c1cccc(C(=O)O)c1)C[C@H]2c1ccc(C#N)cc1` (relative stereo): 145 °C; for `CC(C)Oc1cc(-n2c(Cl)nc(C(F)(F)F)cc2=O)c(F)cc1Cl`: 88 to 90 °C; for `CC(=O)OCC[C@H](NC(=O)C(F)(F)F)C(=O)O`: 134 to 136 °C.
The same measure for `COC(=O)Cc1ccc(OCCNC(=O)C2Cc3ccccc3N2S(=O)(=O)c2ccc(-c3cc(C(F)(F)F)ccc3C)cc2)cc1` (centres undefined): 46 to 49 °C.
The same measure for `COCOc1ccc(C(CS(=O)(=O)c2ccc(-c3ccc(C(F)(F)F)cc3)cc2)N(O)C=O)cc1` (centres undefined): 137 to 138 °C; for `C#CCN1C(=O)COc2ccc(N)cc21`: 136 to 140 °C; for `CN1C(=O)N(c2ccccc2F)C(=O)C1=CC1CCCCC1`: 131 to 137 °C.
The compound `CCN(CC)C(=O)Cc1cc(C(C)C)c(O)cc1C` registered a melting point of 138 to 139 °C.
The same measure for `CN(C)c1ccnc(CSc2c[nH]c3ccccc23)c1`: 189 to 191 °C.
`CC(C)C[C@H](NC(=O)OC(C)(C)C)[C@@H](O)c1ncnn1C`: the melting point was 144 to 145 °C.
With `N#Cc1cccc(S(=O)(=O)N2c3ccccc3C[C@H]2C(=O)NCCc2ccccc2)c1`, the melting point was 50 °C.
`COc1cc(OC)cc(-c2ncn(-c3cc(OC)c(OC)c(OC)c3)c2-c2ccc(N(C)C)cc2)c1` registered a melting point of 151 to 154 °C.
The same measure for `CC(c1ccccc1)N1Cc2cncn2C(c2ccc(Br)cc2)C1=O` (single isomer, unassigned; (+)): 147 to 148 °C; for `NC(=O)CN1C(=O)[C@@H](NC(=O)c2cc3ccccc3[nH]2)[C@H](c2ccccc2)Sc2ccccc21` (relative stereo): 222 to 225 °C; for `O=C1Nc2cccnc2N(C(=O)Cl)c2ccccc21`: 239 to 240 °C.
The same measure for `CC(CC(C)C1CCC2C3C(O)CC4CC(O)CCC4(C)C3CCC12C)C(=O)O` (centres undefined): 125 to 127 °C.
Then `CCOc1nn(Cc2ccc(OCc3nc(-c4ccccc4)ccc3Cl)cc2)cc1CCC(=O)O`, with 120 to 121 °C; and `O=C(O)CC1(CNC(=O)OC(OC(=O)c2ccccc2)c2ccccc2)CCCCC1` (centres undefined), with 75.5 to 76 °C.
Compound `O=S(=O)(Nc1ccc2c(OCc3nc4ccccc4s3)cccc2c1)C(F)(F)F` yielded a melting point of 190 to 192 °C.
The same measure for `O=C1N(Cc2nnc(C(F)(F)F)o2)c2ccccc2C12COc1cc3c(cc12)OCCO3` (centres undefined): 137 to 139 °C; for `O=C(O)Cc1ccc(CCOc2ccc(CC3SC(=O)NC3=O)cc2)nc1` (centres undefined): 144 to 145 °C; for `Brc1ccccc1CCn1ccccc1=NC(=NC1CCCCC1)NC1CCCCC1`: 125 to 129 °C.
The same measure for `C#CCOc1ccc2c(C)cc(=O)oc2c1C(=O)C=Cc1ccc(F)cc1`: 185 to 186 °C; for `CCCCc1cn(-c2ccccc2C(C)C)c(=O)n1Cc1ccc(-c2ccccc2-c2nnn[nH]2)cc1`: 167 to 168 °C; for `CS(=O)CC(=O)c1ccccc1N` (centres undefined): 99 to 100 °C.
`O=S(=O)(Nc1cccc(CCOCc2noc(-c3ccc(C(F)(F)F)cc3)n2)c1)C(F)(F)F` displayed a melting point of 83 to 86 °C.
The compound `CC(C)CC(NC(=O)C(CS)CC(F)(F)F)C(=O)O` (centres undefined) came in with a melting point of 78 to 81 °C.
`COc1cccc(Nc2nc(-c3ccccc3)c(C(=O)c3sc(Nc4cccc(OC)c4)nc3-c3ccccc3)s2)c1` showed a melting point of more than 285 °C.
The same measure for `CC(C)(C)C1Cc2cc(OCC(=O)O)c(Cl)c(Cl)c2C1=O` (centres undefined): 155 to 175 °C; for `Cc1cccc(-c2nc(C(C)C)[nH]c2-c2ccc(F)c(-c3ccc(CC4CNCCO4)cc3)c2)n1` (centres undefined): 147 to 161 °C.
`Cc1c2n(c3ccccc13)C(=O)C(C(O)c1cccnc1)CC2` (centres undefined): the melting point was in the range of 83 to 86 °C.
The same measure for `CC(C)C(C(=O)NC1CCCCC1)N1CC(=O)NCC(=O)NCC(=O)NCC(=O)NCC(=O)NCC1=O` (centres undefined): 275 °C; for `COC(=O)/C(=N/N(C)C)c1ccc(OCCOc2ccc3ccccc3c2)cc1`: 109 to 111 °C.
Then `COC(=O)c1c(C)[nH]c(-c2ncncc2Cl)c1C(=O)OC`, with 180 to 181 °C; and `O=C(c1ccccc1)c1ccccc1NC(=O)C(Cl)Cl`, with 112 to 114 °C; and `Nc1nc(N2CCC2)c2ncn(C3C=CC(CO)C3)c2n1` (centres undefined), with 187 to 189 °C.
Then `Oc1cc(Cl)c(Br)c(Cl)c1`, with 118 to 120 °C.
As for `O=C1Nc2ccsc2C(=O)N2CC[C@@H]12`, the melting point worked out at 274 °C.
Then `COC1(c2cccc(OCc3ccc4ccccc4c3)c2)CCCOCC1` (centres undefined), with 57 to 58 °C; and `CN(NC1=CC(=O)NCC1)c1ccccc1`, with 180 to 182 °C; and `CN(C)CCOc1cc2c(Nc3ccc(Cl)cc3F)c(C#N)cnc2cn1`, with 150 to 152 °C.
Then `CCOC(=O)NN=C(C)c1cccc(C(F)(F)F)c1`, with 94 to 96 °C; and `O=C(O)c1ccc(-c2coc3ccccc23)cc1`, with 222 to 225 °C; and `CS(=O)(=O)c1ccc(-c2cnn(Cc3ccccc3)c(=O)c2Oc2ccc(F)cc2)cc1`, with 188 to 190 °C.
The same measure for `O=c1oc(-c2ccc(Cl)c(Cl)c2)cc(O)c1SCc1ccccc1`: 185 to 186 °C; for `CCCCCCCCCCCCCCCCCCNC(=O)OCC(CNS(=O)(=O)CCCCl)OC(=O)NC` (centres undefined): 102 to 104 °C; for `CCOc1ccc(-c2nc(C(O)c3ccc(OC)c(OC)c3)cs2)cc1OCC` (centres undefined): 122 to 123 °C.
The compound `CC(=O)Nc1cc(OCCC(=O)O)ccc1Oc1ccccc1` showed a melting point of 138 to 140 °C.
The same measure for `CCOC(=O)c1c2n(c3c(F)c(N4CCC(NC(=O)C(F)(F)F)C4)c(F)cc3c1=O)C(C)S2` (centres undefined): 235 to 237 °C; for `CC(C)(C)c1cc(SCCc2nnco2)cc(C(C)(C)C)c1O`: 87.5 to 89 °C.
The same measure for `CC(C)(C)OC(=O)/C=C1/CCCCC1n1nc(-c2c(-c3ccccc3)nn3ccccc23)ccc1=O` (centres undefined): 110 to 116 °C.
The compound `O=c1c2c(c3cccnc3n1-c1cccc(Cl)c1)OC(CO)C2` (centres undefined) came in with a melting point of 243 to 245 °C.
Then `Cn1cncc1C(=O)NCc1cccc2c1C(=O)N(C1CCC(=O)NC1=O)C2=O` (centres undefined), with more than 260 °C.
Then `C=C(C)[C@@H]1CC[C@]2(C(=O)N[C@H]3C[C@@H](C(=O)N4CCCC4)C3(C)C)CC[C@]3(C)[C@H](CC[C@@H]4[C@@]5(C)CC[C@H](OC(=O)CC(C)(C)C(=O)O)C(C)(C)[C@@H]5CC[C@]43C)[C@@H]12`, with 110 to 114 °C; and `COC(=O)C(CCO)NS(=O)(=O)c1ccc(Cl)cc1` (racemic), with 91 to 92 °C.
Then `CC(=O)NNC1=Nc2sc(Cl)cc2C(c2ccccn2)=NC1`, with 193 to 195 °C; and `COc1ccc2nccc(CCC[C@@H]3CCN(CCCc4cccs4)C[C@@H]3C(=O)O)c2c1`, with 60 °C.
In turn, `CC(=O)Oc1ccc(C(=O)c2cccc(OC(C)=O)c2)cc1` returned a melting point of 81 to 83 °C.
The same measure for `CCNc1cc(C)nn1-c1c(Cl)cc(C(F)(F)F)cc1Cl`: 74 to 75 °C; for `Nc1cnc(Oc2ccc(Cl)c3c2CCCC3)c(Cl)c1`: 130 to 132 °C; for `O=C(CSCc1ccc(Cl)cc1Cl)NO`: 116 °C.
The same measure for `CCCCCCCCCCOc1cc(OCCCCCCCCCC)cc(N(CC(=O)OCc2ccccc2)CC(=O)OCc2ccccc2)c1`: 55 to 57 °C.
Then `COc1ccc(-c2nnc(N)nc2-c2ccc(OC)cc2)cc1`, with 179 to 181 °C; and `CN(C)CCNC(=O)c1cc(Oc2ccc3c(C(=O)Nc4cccc(C(F)(F)F)c4)cccc3c2)ccn1`, with 80 to 82 °C; and `CCOC(=O)c1ccc(Nc2c(NCc3ccccc3)cc(C(=O)OCC)cc2S(N)(=O)=O)cc1`, with 161 °C.
The compound `COc1cc(-c2cc(F)cc(C#N)c2)cc2c1NC(=O)OC2(C)C` returned a melting point of 252 to 253 °C.
Consider `CCOc1c(OC)cc(COc2ccc(N)nn2)cc1OC`, for which the melting point was 169 to 171 °C.
